Experimental data as given in PubChem BioAssay AID256 (DTP/NCI, 2004).
Where “and” joins values, the source holds several entries; their conditions need not be identical. Identical values can stand only once. Inconclusive results and toxic doses are left out. The calls were made as follows: active = survival T/C of 150% or more; inactive = T/C below 125% in these data.

System: CD2F1 mice, L1210 leukemia ip, survival T/C
Assay: NCI In Vivo Anticancer Drug Screen. Data for tumor model L1210 Leukemia (intraperitoneal) in CD2F1 (CDF1) mice
Details: endpoint: mean survival time, higher = longer survival
In short: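 Tumor-bearing mice (transplanted tumor) were split into treated and vehicle control groups, and the measured endpoint of each treated group was divided by that of its vehicle controls.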

[1] = dose: 100.0 mg/kg/injection, schedule: Q04DX003 (ip), vehicle: saline with Tween-80
[2] = dose: 200.0 mg/kg/injection, schedule: Q04DX003 (ip), vehicle: saline with Tween-80
[3] = dose: 400.0 mg/kg/injection, schedule: Q04DX003 (ip), vehicle: saline with Tween-80
[4] = dose: 100.0 mg/kg/injection, schedule: Q01DX009 (ip), vehicle: saline with Tween-80
[5] = dose: 200.0 mg/kg/injection, schedule: Q01DX009 (ip), vehicle: saline with Tween-80
[6] = dose: 400.0 mg/kg/injection, schedule: Q01DX009 (ip), vehicle: saline with Tween-80
[7] = dose: 100.0 mg/kg/injection, schedule: Q01DX001 (ip), vehicle: saline
[8] = dose: 200.0 mg/kg/injection, schedule: Q01DX001 (ip), vehicle: saline
[9] = dose: 400.0 mg/kg/injection, schedule: Q01DX001 (ip), vehicle: saline
[10] = dose: 50.0 mg/kg/injection, schedule: Q04DX003 (ip), vehicle: saline
[11] = dose: 100.0 mg/kg/injection, schedule: Q04DX003 (ip), vehicle: saline
[12] = dose: 200.0 mg/kg/injection, schedule: Q04DX003 (ip), vehicle: saline
[13] = dose: 6.25 mg/kg/injection, schedule: Q01DX009 (ip), vehicle: saline with Tween-80
[14] = dose: 12.5 mg/kg/injection, schedule: Q01DX009 (ip), vehicle: saline with Tween-80
[15] = dose: 25.0 mg/kg/injection, schedule: Q01DX009 (ip), vehicle: saline with Tween-80
[16] = dose: 50.0 mg/kg/injection, schedule: Q01DX009 (ip), vehicle: saline with Tween-80
[17] = dose: 50.0 mg/kg/injection, schedule: Q01DX009 (ip), vehicle: Klucel (hydroxypropylcellulose) (HPC)
[18] = dose: 100.0 mg/kg/injection, schedule: Q01DX009 (ip), vehicle: Klucel (hydroxypropylcellulose) (HPC)

Measured: T/C

CC(C)(C)C(=O)CC(=O)C(C)(C)C.CC(C)(C)C(=O)CC(=O)C(C)(C)C.CC(C)(C)C(=O)CC(=O)C(C)(C)C.[Dy]
inactive: [1] 97 % of control | [2] 94 % of control | [3] 94 % of control

Nc1nc2nc(-c3ccccc3)c(-c3ccccc3)nc2c(=O)[nH]1
inactive: [4] 96 % of control | [5] 94 % of control | [6] 97 % of control

COc1cc2c(c(OC)c1OC)-c1cc(I)c(O)cc1[C@@H](NC(C)=O)CC2
inactive: [4] 98 % of control

NNc1nnc(Cl)cc1N
inactive: [1] 109 % of control

CCN(CC)C(=S)SCn1ncc2ccc([N+](=O)[O-])cc21
inactive: [7] 95 % of control | [8] 92 % of control | [9] 89 % of control

C=CC(N)=O
inactive: dose: 25.0 mg/kg/injection, schedule: Q01DX009 (ip), vehicle: saline 102 % of control | dose: 25.0 mg/kg/injection, schedule: Q04DX003 (ip), vehicle: saline 92 % of control | dose: 50.0 mg/kg/injection, schedule: Q01DX009 (ip), vehicle: saline 92 % of control | [10] 105 % of control | [11] 97 % of control

O=C1C(Cl)(Cl)C(=O)C(Cl)(Cl)C(=O)C1(Cl)Cl
inactive: dose: 25.0 mg/kg/injection, schedule: Q04DX002 (ip), vehicle: saline with Tween-80 97 % of control | dose: 50.0 mg/kg/injection, schedule: Q04DX002 (ip), vehicle: saline with Tween-80 94 % of control

Cc1ccc(Oc2ccc([N+](=O)[O-])cc2)cc1
inactive: [10] 101 % of control | [11] 100 % of control | [12] 94 % of control

CN1C2CCC1C(CO)C(O)C2 (centres undefined)
inactive: dose: 100.0 mg/kg/injection, schedule: Q04DX002 (ip), vehicle: saline 105 % of control | dose: 200.0 mg/kg/injection, schedule: Q04DX002 (ip), vehicle: saline 94 % of control | dose: 400.0 mg/kg/injection, schedule: Q04DX002 (ip), vehicle: saline 97 % of control

Cc1cccc(NC(N)=S)n1
inactive: dose: 12.5 mg/kg/injection, schedule: Q01DX009 (ip), vehicle: other 103 % of control | dose: 25.0 mg/kg/injection, schedule: Q01DX009 (ip), vehicle: other 107 % of control | dose: 50.0 mg/kg/injection, schedule: Q01DX009 (ip), vehicle: other 107 % of control | dose: 100.0 mg/kg/injection, schedule: Q01DX009 (ip), vehicle: other 91 % of control | dose: 200.0 mg/kg/injection, schedule: Q01DX009 (ip), vehicle: other 111 % of control

c1ccc(-c2ccc(C3=NC(c4ccccc4)N4C3C4c3ccccc3)cc2)cc1 (centres undefined)
inactive: dose: 6.25 mg/kg/injection, schedule: Q01DX001 (ip), vehicle: saline with Tween-80 103 % of control | [13] 91 % of control | dose: 12.5 mg/kg/injection, schedule: Q01DX001 (ip), vehicle: saline with Tween-80 86 % of control | [14] 94 % of control | dose: 25.0 mg/kg/injection, schedule: Q01DX001 (ip), vehicle: saline with Tween-80 92 % of control

COC(=O)CCC(=O)N1C=Cc2ccccc2C1C#N (centres undefined)
inactive: [4] 98 % of control | [1] 95 % of control | [5] 102 % of control | [2] 95 % of control | [6] 102 % of control | [3] 90 % of control

c1cc2c(c(NC3=NCCN3)c1)CCCC2
inactive: [14] 96 % of control | [15] 100 % of control | [16] 111 % of control

COc1cc(C(C)(C)C)cc(OC)c1C(O)(c1c(OC)cc(C(C)(C)C)cc1OC)c1c(OC)cc(C(C)(C)C)cc1OC
inactive: [13] 100 % of control | [14] 104 % of control | [15] 104 % of control | [16] 102 % of control | [4] 105 % of control | [5] 88 % of control

CC(S)CN (centres undefined)
inactive: dose: 100.0 mg/kg/injection, schedule: Q01DX009 (ip), vehicle: saline 96 % of control | [11] 101 % of control | dose: 200.0 mg/kg/injection, schedule: Q01DX009 (ip), vehicle: saline 94 % of control | [12] 98 % of control | dose: 400.0 mg/kg/injection, schedule: Q01DX009 (ip), vehicle: saline 101 % of control | dose: 400.0 mg/kg/injection, schedule: Q04DX003 (ip), vehicle: saline 104 % of control

C1=CC23CC(c4ccccc42)C2c4ccccc4C23C=C1 (centres undefined)
inactive: [4] 101 % of control | [1] 93 % of control | [5] 101 % of control | [2] 95 % of control | [6] 95 % of control | [3] 93 % of control

O=C(NC(COCc1ccccc1)C(=O)O)OCc1ccccc1 (centres undefined)
inactive: [1] 88 % of control | [2] 92 % of control | [3] 100 % of control

O=C(NNC(=O)c1cccnc1)Nc1cccc(Cl)c1Cl
inactive: [16] 94 % of control | [5] 101 % of control

COc1ccc(CCNCCc2ccc(OC)c(OC)c2)cc1OC
inactive: dose: 12.5 mg/kg/injection, schedule: Q01DX009 (ip), vehicle: water 95 % of control | dose: 25.0 mg/kg/injection, schedule: Q01DX009 (ip), vehicle: water 100 % of control | dose: 50.0 mg/kg/injection, schedule: Q01DX009 (ip), vehicle: water 102 % of control | dose: 100.0 mg/kg/injection, schedule: Q01DX009 (ip), vehicle: water 104 % of control

COc1ccc(OC)c(/C=C/c2ccc3ccccc3n2)c1
inactive: [4] 110 % of control | [1] 104 % of control | [5] 98 % of control | [2] 104 % of control | [6] 106 % of control | [3] 108 % of control

NC(=O)c1ncnc2c1ncn2C1OC(CO)C(O)C1O (centres undefined)
inactive: dose: 12.5 mg/kg/injection, schedule: Q01DX005 (ip), vehicle: water 104 % of control and 102 % of control | dose: 25.0 mg/kg/injection, schedule: Q01DX005 (ip), vehicle: water 104 % of control and 97 % of control | dose: 50.0 mg/kg/injection, schedule: Q01DX005 (ip), vehicle: water 106 % of control and 96 % of control | dose: 100.0 mg/kg/injection, schedule: Q01DX005 (ip), vehicle: water 110 % of control and 100 % of control | dose: 200.0 mg/kg/injection, schedule: Q01DX005 (ip), vehicle: water 110 % of control and 96 % of control

CSc1nnnn1-c1ccccc1
inactive: [17] 111 % of control | [18] 104 % of control

COc1ccc2c(c1)C1(C)CCCC(C#N)C1CC2 (centres undefined)
inactive: [7] 101 % of control | [8] 96 % of control | [9] 94 % of control

COc1cc(Cl)ccc1NC(=O)Nc1ccc(CCO)cc1
inactive: [16] 93 % of control | [4] 93 % of control

O=C(Nc1ccccc1Cl)c1ccccc1CC(O)(c1ccccc1)c1ccccc1
inactive: dose: 100.0 mg/kg/injection, schedule: Q01DX001 (ip), vehicle: saline sonified 102 % of control | dose: 200.0 mg/kg/injection, schedule: Q01DX001 (ip), vehicle: saline sonified 109 % of control | dose: 400.0 mg/kg/injection, schedule: Q01DX001 (ip), vehicle: saline sonified 86 % of control

N#CCCCN1C(=O)c2ccccc2C1=O
inactive: [17] 99 % of control | [18] 97 % of control | dose: 200.0 mg/kg/injection, schedule: Q01DX009 (ip), vehicle: Klucel (hydroxypropylcellulose) (HPC) 99 % of control
